Source: patent US12012391B1, “9-(2-hydroxyquinoline-3-yl)-10-[3-(dimethylamino)propyl]-3,4,6,7,9,10-hexahydroacridine-1,8(2H,5H)-dione as an antimicrobial compound” (KING FAISAL UNIVERSITY, priority 2023, dated 2024)

Key:
Settings in all cases: after 10, 20, 40 and 60 minutes at all dilutions 1:100 to 1:800
[1] = test system: Ps. aeruginosa; test: Antimicrobial activity by agar dilution, Ps. aeruginosa; type: cell-based, Pseudomonas aeruginosa
Description: (§1) The antimicrobial properties of the synthesized compound 9-(2-hydroxyquinoline-3-yl)-10-[3-(dimethylamino)propyl]-3,4,6,7,9,10-hexahydroacridine-1,8(2H,5H)-dione were studied by the method of agar dilution. Test solutions of each compound were prepared in a concentration of 1% using dimethylformamide as a solvent. Then they were diluted in a physiological solution to obtain the final experimental dilutions 1:100, 1:200, 1:400, and 1:800. The effect of these substances were compared with furacillin in a controllable study. The testing microbes used were gram positive bacteria St. aereus, gram negative bacteria E. Coli and Ps. aeruginosa, and Candida albicans fungi. The experiments used for this survey were meat-pentonlu agar (EPA) for cultivation of bacteria and Saburo environment for fungi. Each experiment used 1 ml of test solution on each plate 500 min. Add 2 drops of emulsified with microbes feel. All experimental samples were taken from the agar after 10, 20, 40, 60 minutes in the environment on the basis of Patrk planted. Bacteria were cultivated at a temperature of 37° C. for 1 day and the mushroom was kept in a thermostat for […] at a temperature of 28° C. Then the results were checked.

[2] = test system: Candida albicans; test: Antimicrobial activity by agar dilution, Candida albicans; type: cell-based
Description: as §1

[3] = test system: St. aereus; test: Antimicrobial activity by agar dilution, St. aereus; type: cell-based, Staphylococcus aureus
Description: as §1

[4] = test system: E. Coli; test: Antimicrobial activity by agar dilution, E. Coli; type: cell-based, Escherichia coli
Description: as §1

Measured: inhibition activity

CN(C)CCCN1C2=C(C(=O)CCC2)C(c2cc3ccccc3nc2O)C2=C1CCCC2=O [9-(2-hydroxyquinoline-3-yl)-10-[3-(dimethylamino)propyl]-3,4,6,7,9,10-hexahydroacridine-1,8(2H,5H)-dione]
highest inhibition activity: all assays above
